The target of the assay is human URAT1 (Homo sapiens (Human), UniProt Q96S37). The assay can be described thus: Test for uric acid transport inhibition using human URAT1 expression cell. The class given is cell-based. The note with it: human URAT1 stable expression CHO cell; 14C-labeled uric acid 38 μM final concentration; incorporation at room temperature for 5 minutes; 100% window defined with benzbromarone 100 μM; read-out: URAT1 Inhibitory Activity (IC50). How it is done:
In this Example, it was evaluated whether the Example compound has the URAT1 inhibitory activity.
Human URAT1 full-length cDNA was introduced to an expression vector pcDNA5/FRT/V5-His TOPO (registered trademark) (Invitrogen Corporation). The obtained expression plasmid was introduced to Chinese hamster ovary cell (hereinafter referred to as the CHO cell) by the liposome method using Lipofectamine LTX (Invitrogen), and cultured in a selection medium including hygromycin, whereby to prepare human URAT1 stable expression cell.
The human URAT1 expression CHO cell was cultured using D-MEM/F-12 (1:1) mixed medium including 10% bovine fetal serum and hygromycin at 37° C. in the presence of 5% CO2. The cells were seeded onto a 96 well plate (Corning Incorporated) in 0.8×10^5 cells/well, and after 24 hours, the test for uric acid transport inhibition below was performed.
The medium was removed by aspiration, and then the cells were washed once with an assay buffer including 125 mM of sodium gluconate, 4.8 mM of potassium gluconate, 1.2 mM of potassium dihydrogen phosphate, 1.2 mM of magnesium sulfate, 1.3 mM of calcium gluconate and 5.6 mM of glucose. 50 μL assay buffer including the test compound in various concentrations was added, and further 50 μL assay buffer including a radioactive ligand (uric acid labeled with ^14C; 38 μM final concentration) was added, and incorporation reaction was performed at room temperature for 5 minutes. Immediately after completion of the reaction, the reaction mixture was washed twice with 100 μL ice-cold assay buffer, and 100 μL of 0.1 N sodium hydroxide was added. The reaction mixture was stirred to lyse the cells, and 4 mL Hionic-Fluor (Packard BioScience CO) was added, and then the radioactivity was measured with a liquid scintillation counter (Beckman Coulter, Inc. and Packard BioScience CO).
The radioactivity when each concentration of the test compound was added (uric acid incorporation activity, %) was calculated in which the difference of the radioactivity when the test compound was not added (DMSO added), and the radioactivity when a positive control compound, benzbromarone (known URAT1 inhibitor) was added in 100 μM, was taken as 100%, and the concentration of the test compound when the uric acid incorporation activity was inhibited to 50% (IC50) was obtained.

Sequence of human URAT1 (Q96S37 whole entry): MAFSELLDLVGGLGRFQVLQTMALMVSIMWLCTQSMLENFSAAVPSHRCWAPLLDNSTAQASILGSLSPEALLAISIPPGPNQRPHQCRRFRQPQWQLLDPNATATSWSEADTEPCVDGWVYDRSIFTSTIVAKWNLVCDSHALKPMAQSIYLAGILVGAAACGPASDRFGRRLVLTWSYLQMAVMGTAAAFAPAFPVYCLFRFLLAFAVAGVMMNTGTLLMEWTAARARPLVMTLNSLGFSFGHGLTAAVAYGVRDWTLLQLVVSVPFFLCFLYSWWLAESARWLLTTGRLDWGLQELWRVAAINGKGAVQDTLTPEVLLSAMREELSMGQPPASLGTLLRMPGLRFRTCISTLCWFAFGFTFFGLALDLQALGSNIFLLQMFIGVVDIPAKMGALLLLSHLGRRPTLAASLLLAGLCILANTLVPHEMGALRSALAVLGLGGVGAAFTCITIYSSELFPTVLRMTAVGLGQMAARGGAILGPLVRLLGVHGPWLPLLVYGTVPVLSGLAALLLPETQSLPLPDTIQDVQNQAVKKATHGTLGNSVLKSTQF

On to `Cc1cccc(C)c1Cn1cc(Cl)c2ccc(CC(=O)O)cc21` [Example 68, 2-[3-chloro-1-(2,6-dimethylbenzyl)-1H-indole-6-yl]acetic acid], for which the IC50 (as a rule, the point on the concentration scale where inhibition reaches its midpoint) was found to be 30 nM. The value for `Cc1cccc(Cl)c1Cn1nc(C)c2ncc(-c3nnn[nH]3)cc21` [Example 160, 1-(2-chloro-6-methylbenzyl)-3-methyl-6-(1H-tetrazole-5-yl)-1H-pyrazolo[4,3-b]pyridine] was 124 nM.

For the molecule `Cc1nn(Cc2csc3ccc(Cl)cc23)c2cc(CCC(=O)O)ccc12` [Example 124, 3-{1-[(5-chlorobenzo[b]thiophene-3-yl)methyl]-3-methyl-1H-indazole-6-yl}propionic acid], the IC50 was 31 nM. The result for `Cc1nn(Cc2c(Cl)cccc2C#N)c2cc(CC(=O)O)ccc12` [Example 109, 2-[1-(2-chloro-6-cyanobenzyl)-3-methyl-1H-indazole-6-yl]acetic acid] reads 335 nM; that for `Cc1cccc(C)c1CN1CCc2ccc(CC(=O)O)cc21` [Example 75, 2-[1-(2,6-dimethylbenzyl)-2,3-dihydro-1H-indole-6-yl]acetic acid], 77 nM; that for `CCc1nn(Cc2c(C)cccc2C)c2cc(C(=O)O)ccc12` [Example 143, 1-(2,6-dimethylbenzyl)-3-ethyl-1H-indazole-6-carboxylic acid], 35 nM. The result for `Cc1nn(Cc2c(Cl)cccc2Cl)c2cc(Cc3n[nH]c(=O)o3)ccc12` [Example 136, 5-{[1-(2,6-dichlorobenzyl)-3-methyl-1H-indazole-6-yl]methyl}-1,3,4-oxadiazol-2(3H)-one] reads 34 nM; that for `Cc1nn(Cc2c(Cl)cccc2Cl)c2nc(Cc3nnn[nH]3)ccc12` [Example 152, 1-(2,6-dichlorobenzyl)-3-methyl-6-(1H-tetrazole-5-ylmethyl)-1H-pyrazolo[3,4-b]pyridine], 184 nM. Regarding `Cc1nn(Cc2c(Cl)cccc2Cl)c2cc(CCCC(=O)O)ccc12` [Example 133, 4-[1-(2,6-dichlorobenzyl)-3-methyl-1H-indazole-6-yl]butyric acid], the IC50 was 16 nM. The value for `Cc1nn(Cc2c(Cl)cccc2Cl)c2cc(C(=O)O)cnc12` [Example 153, 1-(2,6-dichlorobenzyl)-3-methyl-1H-pyrazolo[4,3-b]pyridine-6-carboxylic acid] was 361 nM. The value for `Cc1cccc(Cl)c1Cn1nc(C)c2ccc(CC(=O)O)cc21` [Example 102, 2-[1-(2-chloro-6-methylbenzyl)-3-methyl-1H-indazole-6-yl]acetic acid] was 52 nM; that for `Cc1cccc(C)c1Cn1nc(C)c2ccc(C(=O)O)cc21` [Example 117, 1-(2,6-dimethylbenzyl)-3-methyl-1H-indazole-6-carboxylic acid] was 91 nM; that for `Cc1nn(Cc2csc3ccc(Cl)cc23)c2cc(CC(=O)O)ccc12` [Example 106, 2-{1-[(5-chlorobenzo[b]thiophene-3-yl)methyl]-3-methyl-1H-indazole-6-yl}acetic acid] was 55 nM. The result for `Cc1nn(Cc2c(Cl)cccc2Cl)c2cc(C(O)C(=O)O)ccc12` (centres unmarked) [Example 128, [1-(2,6-dichlorobenzyl)-3-methyl-1H-indazole-6-yl]hydroxyacetic acid] reads 576 nM. As for `Cc1nn(Cc2c(Cl)cccc2Cl)c2cc(CCc3nnn[nH]3)ccc12` [Example 135, 1-(2,6-dichlorobenzyl)-3-methyl-6-[2-(1H-tetrazole-5-yl)ethyl]-1H-indazole], the IC50 came to 23 nM.

`Cc1cccc(C)c1Cn1cc(C(C)C)c2ccc(C(=O)O)cc21` [Example 92, 1-(2,6-dimethylbenzyl)-3-isopropyl-1H-indole-6-carboxylic acid]: the IC50 turned out to be 71 nM. The result for `Cc1nn(Cc2c(Cl)cccc2Cl)c2cc(CS(=O)(=O)O)ccc12` [Example 139, [1-(2,6-dichlorobenzyl)-3-methyl-1H-indazole-6-yl]methanesulfonic acid] reads 653 nM; that for `Cc1cccc(C)c1Cn1nc(C)c2ccc(CCC(=O)O)cc21` [Example 121, 3-[1-(2,6-dimethylbenzyl)-3-methyl-1H-indazole-6-yl]propionic acid], 41 nM; that for `O=C(O)Cc1ccc2c(C3CC3)nn(Cc3c(Cl)cccc3Cl)c2c1` [Example 148, 2-[3-cyclopropyl-1-(2,6-dichlorobenzyl)-1H-indazole-6-yl]acetic acid], 49 nM. `Cc1cccc(C)c1Cn1nc(Cl)c2ccc(C(=O)O)cc21` [Example 149, 3-chloro-1-(2,6-dimethylbenzyl)-1H-indazole-6-carboxylic acid]: the half-inhibitory concentration (IC50) was 53 nM. The value for `Cc1cccc(Cl)c1Cn1nc(Cl)c2ncc(-c3nnn[nH]3)cc21` [Example 177, 3-chloro-1-(2-chloro-6-methylbenzyl)-6-(1H-tetrazole-5-yl)-1H-pyrazolo[4,3-b]pyridine] was 104 nM; that for `Cc1nn(Cc2c(F)cccc2Cl)c2cc(CC(=O)O)ccc12` [Example 104, 2-[1-(2-chloro-6-fluorobenzyl)-3-methyl-1H-indazole-6-yl]acetic acid] was 101 nM. The value for `CCc1nn(Cc2c(Cl)cccc2Cl)c2cc(C(=O)O)cnc12` [Example 167, 1-(2,6-dichlorobenzyl)-3-ethyl-1H-pyrazolo[4,3-b]pyridine-6-carboxylic acid] was 80 nM.

`CCc1nn(Cc2c(Cl)cccc2Cl)c2cc(C(=O)O)ccc12` [Example 144, 1-(2,6-dichlorobenzyl)-3-ethyl-1H-indazole-6-carboxylic acid]: the IC50 was 42 nM. The value for `Cc1nn(Cc2c(Cl)cccc2Cl)c2cc(CCC(N)=O)ccc12` [Example 132, 3-[1-(2,6-dichlorobenzyl)-3-methyl-1H-indazole-6-yl]propionamide] was 186 nM.

`Cc1cn(Cc2cccc(Cl)c2Cl)c2cc(CC(=O)O)ccc12` [Example 84, 2-[1-(2,3-dichlorobenzyl)-3-methyl-1H-indole-6-yl]acetic acid]: the IC50 came to 53 nM. The value for `Cc1cccc(C)c1CN1CC(C)(C)c2ccc(CC(=O)O)cc21` [Example 80, 2-[1-(2,6-dimethylbenzyl)-2,3-dihydro-3,3-dimethyl-1H-indole-6-yl]acetic acid] was 18 nM. For the molecule `Cc1nn(Cc2c(Cl)cccc2Cl)c2cc(Cc3n[nH]c(=S)o3)ccc12` [Example 137, 5-{[1-(2,6-dichlorobenzyl)-3-methyl-1H-indazole-6-yl]methyl}-1,3,4-oxadiazol-2(3H)-thione], the IC50 amounted to 10 nM. The result for `CCc1nn(Cc2c(Cl)cccc2Cl)c2cc(-c3nnn[nH]3)ccc12` [Example 182, 1-(2,6-dichlorobenzyl)-3-ethyl-6-(1H-tetrazole-5-yl)-1H-indazole] reads 52 nM. The result for `Cc1nn(Cc2cccc(Cl)c2Cl)c2cc(C(=O)O)ccc12` [Example 120, 1-(2,3-dichlorobenzyl)-3-methyl-1H-indazole-6-carboxylic acid] reads 91 nM; that for `Cc1cccc(C)c1Cn1cc(C)c2ccc(CC(=O)O)cc21` [Example 64, 2-[1-(2,6-dimethylbenzyl)-3-methyl-1H-indole-6-yl]acetic acid], 22 nM. The value for `Cc1nn(Cc2c(Cl)cccc2Cl)c2cc(Cc3nnn[nH]3)ccc12` [Example 134, 1-(2,6-dichlorobenzyl)-3-methyl-6-(1H-tetrazole-5-ylmethyl)-1H-indazole] was 13 nM.
